Here are results for 7 substances from patent publication US20230263822A1, “MODULATION OF FACTOR 11 EXPRESSION” (Ionis Pharmaceuticals, Inc., priority 2008, published 2023).

Strand notation (5' to 3'): a small letter for the sugar, then the base; units joined by * are phosphorothioate-linked, units joined directly phosphodiester-linked; [ ] holds rarer units or linkages, { } end groups; capitals alone tell only the bases. e = 2'-O-(2-methoxyethyl) (MOE); [5mC] = 5-methylcytosine; d = 2'-deoxy (DNA)

Data set [1] can be described thus: Tolerability in Sprague-Dawley rats: body weight and organ weight (Example 44). The data set is classed as in vivo. The settings on record: 50 mg/kg s.c. twice per week for 6 weeks; for Change in Kidney weight / Change in Liver weight / Change in Spleen weight: end of study.
Data set [2] can be described thus: Tolerability in Sprague-Dawley rats: liver function (Example 44). The data set is classed as in vivo. More on the design: Albumin: unit not given here. Particulars: 50 mg/kg s.c. twice per week for 6 weeks, plasma.
For the next data set, the system named is fibrinogen. Briefly: Fibrinogen assay (Example 45). The format is in vivo, cynomolgus monkeys. Particulars: plasma. On the procedure: (§1) Groups, each consisting of two male and three female monkeys, were injected subcutaneously with ISIS 416838, ISIS 416850, ISIS 416858, ISIS 416864, or ISIS 417002 in escalating doses. Antisense oligonucleotide was administered to the monkeys at 5 mg/kg three times per a week for week 1; 5 mg/kg twice per week for weeks 2 and 3; 10 mg/kg three times per week for week 4; 10 mg/kg twice per week for weeks 5 and 6; 25 mg/kg three times per week for week 7; and 25 mg/kg twice per week for weeks 8, 9, 10, 11, and 12. One control group, consisting of two male and three female monkeys, was injected subcutaneously with PBS according to the same dosing regimen. An additional experimental group, consisting of two male and three female monkeys, was injected subcutaneously with ISIS 416850 in a chronic, lower dose regimen. Antisense oligonucleotide was administered to the monkeys at 5 mg/kg three times per week for week 1; 5 mg/kg twice per week for week 2 and 3; 10 mg/kg three times per week for week 4; and 10 mg/kg twice per week for weeks 5 to 12. Body weights were measured weekly. Blood samples were collected 14 days and 5 days before the start of treatment and subsequently once per week for Factor 11 protein activity analysis in plasma, fibrinogen measurement, PT and aPTT measurements, bleeding times, and measurement of various hematologic factors. On day 85, the monkeys were euthanized by exsanguination while under deep anesthesia, and organs harvested for further analysis.
Nine parts of fresh monkey plasma was collected into one part of trisodium citrate. The samples were evaluated of fibrinogen content using an ACL 9000 coagulation instrument (Instrumentation Laboratory, Italy). The ISIS oligonucleotide, ISIS 416850, given with the chronic dose regimen is distinguished from the other oligonucleotides with an asterisk (*).

Data set [3] is described as follows: Body and organ weights of cynomolgus monkeys (Example 45).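 On Organ weights, Kidney: absolute organ weight in grams.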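 On Organ weights, Liver: absolute organ weight in grams.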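 On Organ weights, Spleen: absolute organ weight in grams.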 The format is in vivo. The method, then: as §1
Body weights were taken once weekly throughout the dosing regimen. […] Organ weights were taken after the animals were euthanized and livers, kidneys and spleens were harvested and weighed. […] The ISIS oligonucleotide, ISIS 416850, given with the chronic dose regimen is distinguished from the other oligonucleotides with an asterisk (*).

Data set [4] in a line: Tolerability in CD1 mice: kidney function, BUN, creatinine (Example 33). Particulars: plasma, 50 mg/kg s.c. twice a week.
Description: A control group of five mice was injected subcutaneously with PBS for 2 weeks. All experimental groups (i.e. ASO treated mice at 2, 4, 6 weeks) were compared to the control group (i.e. PBS, 2 weeks).
To evaluate the effect of ISIS oligonucleotides on kidney function, plasma concentrations of blood urea nitrogen (BUN) and creatinine were measured using an automated clinical chemistry analyzer (Hitachi Olympus AU400e, Melville, N.Y.).
Setting [5] is: day 15, escalating dose regimen.
Where [6] appears, read: day 22, escalating dose regimen.
Setting [7] is: day 29, escalating dose regimen.
The mark [8] stands for this setting: day 36, escalating dose regimen.
[9] abbreviates: day 43, escalating dose regimen.
The mark [10] stands for this setting: day 50, escalating dose regimen.
Setting [11] is: day 57, escalating dose regimen.
Setting [12] is: day 64, escalating dose regimen.
[13] abbreviates: day 71, escalating dose regimen.
Where [14] appears, read: day 78, escalating dose regimen.
Where [15] appears, read: day 85, escalating dose regimen.
Setting [16] is: day −5, escalating dose regimen.
Where [17] appears, read: day −14, escalating dose regimen.
[18] abbreviates: after the animals were euthanized.
[19] abbreviates: day 8, chronic dose regimen (*).
Where [20] appears, read: day 15, chronic dose regimen (*).
[21] abbreviates: day 22, chronic dose regimen (*).
[22] abbreviates: day 29, chronic dose regimen (*).
[23] abbreviates: day 36, chronic dose regimen (*).
Setting [24] is: day 43, chronic dose regimen (*).
Setting [25] is: day 50, chronic dose regimen (*).

Regarding “ISIS 449709: 3-8-3, 4-8-4, 2-10-2, 3-10-3 or 4-10-4 MOE microwalk gapmer (Table 46) (antisense eG*e[5mC]*eA*e[5mC]*dA*dG*dT*dT*dT*d[5mC]*dT*dG*dG*d[5mC]*eA*eG*eG*e[5mC])”, in data set [1], the body weight came out at 376 g, the “Change in Kidney weight” value is on record as “+19%”, the “Change in Liver weight” value is “+8%” and the “Change in Spleen weight” value is listed as “+231%”. For the same substance, in data set [2], the ALT worked out at 63 IU/L, the AST was 126 IU/L, the Albumin is 3.1 and the Bilirubin worked out at 0.2 mg/dL.
As to “ISIS 449708: 3-8-3, 4-8-4, 2-10-2, 3-10-3 or 4-10-4 MOE microwalk gapmer (Table 46) (antisense eA*e[5mC]*eA*dG*dT*dT*dT*d[5mC]*dT*dG*dG*e[5mC]*eA*eG)”, in data set [1], the body weight is recorded as 382 g, the “Change in Kidney weight” value is “+40%”, the “Change in Liver weight” value is on record as “+31%” and the “Change in Spleen weight” value is “+259%”. In data set [2], this substance returned an ALT of 25 IU/L, an AST of 90 IU/L, an Albumin of 3.2 and a Bilirubin of 0.1 mg/dL.
In the case of “ISIS 449707: 3-8-3, 4-8-4, 2-10-2, 3-10-3 or 4-10-4 MOE microwalk gapmer (Table 46) (antisense e[5mC]*eA*e[5mC]*eA*dG*dT*dT*dT*d[5mC]*dT*dG*dG*e[5mC]*eA*eG*eG)”, in data set [1], the body weight turned out to be 352 g, the “Change in Kidney weight” value is “+80%”, the “Change in Liver weight” value is listed as “+41%” and the “Change in Spleen weight” value is listed as “+400%”. In addition, in data set [2], the ALT is given as 61 IU/L, the AST is listed as 199 IU/L, the Albumin was 3.1 and the Bilirubin was found to be 0.2 mg/dL.
For the substance “ISIS 449710: 3-8-3, 4-8-4, 2-10-2, 3-10-3 or 4-10-4 MOE microwalk gapmer (Table 46) (antisense e[5mC]*eA*e[5mC]*dA*dG*dT*dT*dT*d[5mC]*dT*dG*dG*d[5mC]*eA*eG*eG)”, in data set [1], the body weight stood at 344 g, the “Change in Kidney weight” value is “+50%”, the “Change in Liver weight” value is “+82%” and the “Change in Spleen weight” value is “+302%”. In data set [2], this substance had an ALT of 36 IU/L, an AST of 211 IU/L, an Albumin of 2.9 and a Bilirubin of 0.1 mg/dL.
“ISIS 416864: MOE gapmer, nucleobases 1275 to 1318 of SEQ ID NO: 1 (Table 8) (antisense GGCAGCGGACGGCATTGGTG; MOE gapmer, wing and gap sizes not given here)”: the fibrinogen levels in the data set with fibrinogen (day 8, escalating dose regimen) stood at 227 mg/dL; with fibrinogen (setting [5]), 210 mg/dL; in the data set on fibrinogen (setting [6]), 184 mg/dL; in the data set with fibrinogen (setting [7]), 205 mg/dL; with fibrinogen (setting [8]) it was 202 mg/dL; with fibrinogen (setting [9]), 198 mg/dL. Also, the fibrinogen levels in the data set with fibrinogen (setting [10]) turned out to be 233 mg/dL; in the data set on fibrinogen (setting [11]) it was 200 mg/dL; with fibrinogen (setting [12]), 218 mg/dL; in the data set with fibrinogen (setting [13]) it was 245 mg/dL; in the data set on fibrinogen (setting [14]), 250 mg/dL; in the data set on fibrinogen (setting [15]), 240 mg/dL. For the same substance, the fibrinogen levels in the data set with fibrinogen (setting [16]) is 243 mg/dL; with fibrinogen (setting [17]) it was 300 mg/dL. Also, the “Organ weights, Kidney” value in data set [3] (setting [18]) was determined as 14 g. Also, the “Organ weights, Liver” value in data set [3] (setting [18]) came out at 53 g. For the same substance, the “Organ weights, Spleen” value in data set [3] (setting [18]) is recorded as 5 g. In addition, the body weights in data set [3] (day 1, escalating dose regimen) was determined as 2890 g; in data set [3] (day 8, escalating dose regimen), 2784 g; in data set [3] (setting [5]), 2817 g; in data set [3] (setting [6]), 2857 g; in data set [3] (setting [7]), 2863 g; in data set [3] (setting [8]) it was 3327 g. The body weights was 3355 g in data set [3] (setting [9]); 3408 g in data set [3] (setting [10]); 3387 g in data set [3] (setting [11]); 3384 g in data set [3] (setting [12]); 2942 g in data set [3] (setting [13]); 2822 g in data set [3] (setting [14]). In addition, the results for the BUN in data set [4] (2 weeks), in data set [4] (4 weeks) and in data set [4] (6 weeks) were 22 mg/dL, 31 mg/dL and 28 mg/dL, respectively. Moreover, the Creatinine is listed as 0.11 mg/dL in data set [4] (2 weeks), 0.22 mg/dL in data set [4] (4 weeks) and 0.16 mg/dL in data set [4] (6 weeks).
As for “ISIS 416850: MOE gapmer, nucleobases 1275 to 1318 of SEQ ID NO: 1 (Table 8) (antisense TGCACAGTTTCTGGCAGGCC; MOE gapmer, wing and gap sizes not given here)”, the fibrinogen levels in the data set on fibrinogen (setting [19]) is reported as 232 mg/dL; in the data set with fibrinogen (day 8, escalating dose regimen), 281 mg/dL; with fibrinogen (setting [20]) it was 174 mg/dL; in the data set on fibrinogen (setting [5]) it was 270 mg/dL; in the data set on fibrinogen (setting [21]) it was 192 mg/dL; in the data set on fibrinogen (setting [6]) it was 243 mg/dL. Also, the fibrinogen levels in the data set with fibrinogen (setting [22]) is reported as 192 mg/dL; in the data set with fibrinogen (setting [7]), 234 mg/dL; with fibrinogen (setting [23]) it was 185 mg/dL; in the data set with fibrinogen (setting [8]), 232 mg/dL; in the data set on fibrinogen (setting [24]), 194 mg/dL; in the data set with fibrinogen (setting [9]), 219 mg/dL. The fibrinogen levels in the data set with fibrinogen (setting [25]) is listed as 204 mg/dL; with fibrinogen (setting [10]), 215 mg/dL; with fibrinogen (setting [11]) it was 186 mg/dL; with fibrinogen (setting [12]) it was 190 mg/dL; with fibrinogen (setting [13]) it was 178 mg/dL; in the data set on fibrinogen (setting [14]), 177 mg/dL. In addition, the fibrinogen levels in the data set with fibrinogen (setting [15]) is reported as 187 mg/dL; in the data set on fibrinogen (day −5, chronic dose regimen (*)), 227 mg/dL; with fibrinogen (setting [16]), 261 mg/dL; with fibrinogen (day −14, chronic dose regimen (*)) it was 274 mg/dL; with fibrinogen (setting [17]), 310 mg/dL. The body weights was determined as 2665 g in data set [3] (day 1, chronic dose regimen (*)); 2572 g in data set [3] (day 1, escalating dose regimen); 2579 g in data set [3] (setting [19]); 2430 g in data set [3] (day 8, escalating dose regimen); 2607 g in data set [3] (setting [20]); 2474 g in data set [3] (setting [5]). For the same substance, the body weights in data set [3] (setting [21]) is 2661 g; in data set [3] (setting [6]), 2514 g; in data set [3] (setting [22]) it was 2667 g; in data set [3] (setting [7]), 2515 g; in data set [3] (setting [23]), 2656 g; in data set [3] (setting [8]) it was 2545 g. The body weights in data set [3] (setting [24]) is on record as 2670 g; in data set [3] (setting [9]) it was 2544 g; in data set [3] (setting [25]), 2679 g; in data set [3] (setting [10]), 2613 g; in data set [3] (setting [11]) it was 2629 g; in data set [3] (setting [12]) it was 2642 g. Moreover, the body weights amounted to 2769 g in data set [3] (setting [13]) and 2660 g in data set [3] (setting [14]). The BUN in data set [4] (2 weeks) is given as 25 mg/dL; in data set [4] (4 weeks) it was 30 mg/dL; in data set [4] (6 weeks), 23 mg/dL. Moreover, the Creatinine was 0.13 mg/dL in data set [4] (2 weeks), 0.22 mg/dL in data set [4] (4 weeks) and 0.19 mg/dL in data set [4] (6 weeks).
In the case of “ISIS 449711: 3-8-3, 4-8-4, 2-10-2, 3-10-3 or 4-10-4 MOE microwalk gapmer (Table 46) (antisense eA*e[5mC]*dA*dG*dT*dT*dT*d[5mC]*dT*dG*dG*d[5mC]*eA*eG)”, in data set [1], the body weight is reported as 362 g, the “Change in Kidney weight” value is reported as “+72%”, the “Change in Liver weight” value was “+52%” and the “Change in Spleen weight” value is “+327%”. For the same substance, in data set [2], the ALT is listed as 32 IU/L, the AST was 163 IU/L, the Albumin turned out to be 2.9 and the Bilirubin is reported as 0.1 mg/dL.
